Data taken from BigSolDB 2.1.

CN(C)Cc1c[nH]c2ccccc12
solubility (mole fraction)
Details	273.15 K	278.15 K	283.15 K	288.15 K	293.15 K	298.15 K	303.15 K	308.15 K	313.15 K
in 1,4-dioxane	–	–	–	0.0465	0.0511	0.0562	0.0623	0.0684	0.0746
in acetone	0.0231	0.026	0.0289	0.0327	0.0364	0.0402	0.0463	0.0523	0.0584
in acetonitrile	0.00447	0.00517	0.00621	0.00736	0.00858	0.00998	0.0116	0.0133	0.0151
in ethanol	0.0207	0.023	0.0254	0.0283	0.0317	0.0355	0.0399	0.0449	0.0508
in ethyl acetate	0.0165	0.0193	0.0219	0.0253	0.029	0.0327	0.0377	0.0428	0.0479
in isopropanol	0.013	0.0153	0.0178	0.0207	0.0235	0.0268	0.0305	0.0341	0.0377
in methanol	0.0274	0.0293	0.0315	0.0341	0.0371	0.0417	0.0474	0.0537	0.0615
in n-butanol	0.0305	0.0337	0.0369	0.0416	0.0464	0.0512	0.0565	0.0617	0.067
in n-octanol	0.0111	0.0132	0.0158	0.0187	0.0218	0.025	0.0284	0.0319	0.036
in n-propanol	0.0284	0.0315	0.0346	0.0381	0.0415	0.046	0.0515	0.0581	0.0629
in toluene	0.00345	0.00408	0.00456	0.00537	0.00647	0.00765	0.00905	0.0107	0.0126
